According to PubChem BioAssay (NCI):
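All cell lines were grown in 96-well plates and treated with compound for 48 hours. TGI: concentration producing complete growth inhibition.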

Tests used:
Assay in all cases: inhibition of tumour cell growth, NCI panel, 48 h
[1] = system: RXF 393 renal
[2] = system: COLO 205 colon
[3] = system: SF-295 CNS
[4] = system: A498 renal
[5] = system: OVCAR-4 ovarian
[6] = system: HCT-116 colon
[7] = system: CAKI-1 renal
[8] = system: OVCAR-3 ovarian
[9] = system: UO-31 renal
[10] = system: OVCAR-8 ovarian
[11] = system: HCC-2998 colon
[12] = system: NCI-H23 lung
[13] = system: SR leukemia

SMILES: c1ccc(C(c2ccccc2)[P+](c2ccccc2)(c2ccccc2)c2ccccc2)cc1
- TGI [1]: 10.6 µM
- TGI [2]: 1.2 µM
- TGI [3]: 7.27 µM
- TGI [4]: 8.62 µM
- TGI [5]: 10 µM
- TGI [6]: 5.02 µM
- TGI [7]: 8.47 µM
- TGI [8]: 3 µM
- TGI [9]: 7.95 µM
- TGI [10]: 13.5 µM
- TGI [11]: 11.7 µM
- TGI [12]: 5.05 µM

SMILES: C=CCOC1OC(CS(=O)(=O)O)C(O)C(O)C1O (centres undefined)
- TGI [1]: > 100 µM
- TGI [2]: > 100 µM
- TGI [3]: > 100 µM
- TGI [4]: > 100 µM
- TGI [13]: > 100 µM
- TGI [5]: > 100 µM
- TGI [6]: > 100 µM
- TGI [7]: > 100 µM
- TGI [8]: > 100 µM
- TGI [9]: > 100 µM
- TGI [10]: > 100 µM
- TGI [11]: > 100 µM
- TGI [12]: > 100 µM

SMILES: O=C(O)CSCC(=O)O
- TGI [1]: > 100 µM
- TGI [3]: > 100 µM
- TGI [4]: > 100 µM
- TGI [13]: > 100 µM
- TGI [5]: > 100 µM
- TGI [6]: > 100 µM
- TGI [7]: > 100 µM
- TGI [8]: > 100 µM
- TGI [9]: > 100 µM
- TGI [10]: > 100 µM
- TGI [12]: > 100 µM

SMILES: COc1cc(-c2c(C#N)c(N)c(C#N)c3c2COc2ccccc2-3)cc(OC)c1OC
- TGI [1]: 34.4 µM
- TGI [2]: > 100 µM
- TGI [3]: 58.5 µM
- TGI [4]: > 100 µM
- TGI [13]: > 100 µM
- TGI [5]: > 64.8 µM
- TGI [6]: > 100 µM
- TGI [7]: > 100 µM
- TGI [8]: > 83.8 µM
- TGI [9]: > 69.8 µM
- TGI [10]: 97.6 µM
- TGI [11]: > 100 µM
- TGI [12]: > 60.8 µM
